Our source for the GI50 and TGI values is PubChem BioAssay (NCI).

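Each compound was tested at five concentrations against cells in 96-well plates for 48 hours. Abbreviation: GI50, concentration required for 50% inhibition of growth. TGI denotes the concentration required for complete inhibition of growth.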

Some test systems named below: U251 CNS; A549 NSCLC; 786-0 renal; HOP-62 NSCLC; NCI-H226 lung; SF-539 CNS; OVCAR-4 ovarian; HOP-92 NSCLC; MDA-MB-435; SF-268 CNS.
What all share (assay): growth of human tumour cells (NCI), 48 h

Turning to `Cc1cc2cc3cc(C)c(N(C)C)cc3[n+](C)c2cc1N(C)C`, the GI50 in the test on U251 CNS is 2.05 µM; in the test with A549 NSCLC, 3.1 µM; in the test with 786-0 renal, 5.1 µM; in the test with HOP-62 NSCLC it was 6.03 µM; in the test on NCI-H226 lung, 5.68 µM; with SF-539 CNS, 3.05 µM. In addition, the GI50 in the test on OVCAR-4 ovarian was 2.83 µM; in the test with HOP-92 NSCLC, 2.3 µM; in the test on MDA-MB-435, 3.1 µM; in the test with SF-268 CNS it was 4.1 µM. The TGI with U251 CNS is 21.2 µM; in the test with A549 NSCLC, more than 100 µM; in the test with 786-0 renal, 18.8 µM; in the test on HOP-62 NSCLC, 24.3 µM; in the test on NCI-H226 lung it was 48 µM; in the test with SF-539 CNS, 12.1 µM. For the same molecule, the TGI in the test on OVCAR-4 ovarian is 34.2 µM; with HOP-92 NSCLC, 11.1 µM; in the test with MDA-MB-435, 14.9 µM; in the test on SF-268 CNS, 20.5 µM.

With `COc1ccc(-n2cc(-c3cc(OC)c(OC)c(OC)c3)nc2SCc2ccccc2)cc1`, the GI50 in the test on U251 CNS was 43.8 µM; with A549 NSCLC it was 79.6 µM; with 786-0 renal it was more than 100 µM; in the test with HOP-62 NSCLC, 78 µM; in the test on NCI-H226 lung, more than 100 µM; with SF-539 CNS it was more than 100 µM. The GI50 with OVCAR-4 ovarian was 13.3 µM; with HOP-92 NSCLC, 28.9 µM; with MDA-MB-435, more than 100 µM; with SF-268 CNS it was more than 100 µM. Moreover, the TGI in the test on U251 CNS, with A549 NSCLC, with 786-0 renal, in the test on HOP-62 NSCLC, in the test on NCI-H226 lung and in the test on SF-539 CNS was more than 100 µM in each case. Besides, the TGI in the test with OVCAR-4 ovarian, in the test with HOP-92 NSCLC, with MDA-MB-435 and in the test with SF-268 CNS was more than 100 µM throughout.

Take `Nc1nc(N)c(Cn2ccnc2)c(=O)[nH]1`: the TGI in the test with U251 CNS, with A549 NSCLC, in the test with 786-0 renal, with HOP-62 NSCLC, in the test on NCI-H226 lung and with SF-539 CNS was more than 100 µM each time. Also, the TGI in the test with OVCAR-4 ovarian, with HOP-92 NSCLC, with MDA-MB-435 and in the test on SF-268 CNS was more than 100 µM throughout.

On to `Clc1ccc(/C=C/c2cc(N3CCOCC3)c3cc(Cl)c(Cl)cc3n2)cc1`, for which the GI50 with U251 CNS is more than 100 µM; with A549 NSCLC it was more than 100 µM; with 786-0 renal, 1.37 µM; in the test on HOP-62 NSCLC, more than 100 µM; in the test with NCI-H226 lung it was more than 100 µM; with SF-539 CNS, more than 100 µM. Also, the GI50 in the test with OVCAR-4 ovarian, in the test with HOP-92 NSCLC, in the test with MDA-MB-435 and in the test on SF-268 CNS was more than 100 µM each time. The TGI in the test with U251 CNS, in the test with A549 NSCLC, with 786-0 renal, in the test with HOP-62 NSCLC, with NCI-H226 lung and in the test with SF-539 CNS was more than 100 µM each time. The TGI in the test with OVCAR-4 ovarian, with HOP-92 NSCLC, with MDA-MB-435 and with SF-268 CNS was more than 100 µM in each case.

As to `Cn1cc(C2=C(c3cccc(N)c3)C(=O)NC2=O)c2ccccc21`, the GI50 is 10.4 µM in the test with U251 CNS; 14.1 µM in the test with A549 NSCLC; 14 µM in the test with 786-0 renal; 9.5 µM in the test on HOP-62 NSCLC; 10 µM in the test on NCI-H226 lung; 4.07 µM with SF-539 CNS. The GI50 in the test with OVCAR-4 ovarian was more than 25 µM; with HOP-92 NSCLC, more than 25 µM; in the test with MDA-MB-435, 18.7 µM; in the test with SF-268 CNS it was 24.6 µM. Further, the TGI in the test with U251 CNS, in the test on A549 NSCLC, with 786-0 renal, in the test with HOP-62 NSCLC, in the test on NCI-H226 lung and in the test with SF-539 CNS was more than 25 µM in each case. The TGI in the test with OVCAR-4 ovarian, with HOP-92 NSCLC, in the test on MDA-MB-435 and in the test with SF-268 CNS was more than 25 µM throughout.

Take `COc1cc2c(cc1O)-c1c(cnn1-c1ccc([N+](=O)[O-])cc1)CCC2`: the TGI is 24.9 µM in the test on U251 CNS; 42.4 µM in the test on A549 NSCLC; more than 100 µM in the test on 786-0 renal; more than 100 µM in the test on HOP-62 NSCLC; 47.5 µM in the test with NCI-H226 lung; 33.4 µM with SF-539 CNS. Also, the TGI with OVCAR-4 ovarian was more than 100 µM; in the test with HOP-92 NSCLC, more than 100 µM; with MDA-MB-435, 48.6 µM; in the test with SF-268 CNS it was more than 100 µM.

Consider `N#Cc1cccc(OCc2nc(N)nc(N)c2-c2ccc(Cl)c(Cl)c2)c1`, for which the GI50 in the test on U251 CNS was 0.749 µM; in the test on A549 NSCLC, 0.426 µM; with 786-0 renal, 0.513 µM; in the test with HOP-62 NSCLC, 4.44 µM; with NCI-H226 lung, 7.44 µM; in the test with SF-539 CNS, 1.43 µM. Also, the GI50 is more than 100 µM in the test on OVCAR-4 ovarian, 1.82 µM with HOP-92 NSCLC, 0.486 µM in the test with MDA-MB-435 and 3.05 µM in the test on SF-268 CNS. For the same molecule, the TGI with U251 CNS was more than 100 µM; in the test with A549 NSCLC, more than 100 µM; with 786-0 renal, more than 100 µM; in the test with HOP-62 NSCLC it was more than 100 µM; in the test on NCI-H226 lung, more than 100 µM; in the test on SF-539 CNS, 65.4 µM. Further, the TGI with OVCAR-4 ovarian was more than 100 µM; with HOP-92 NSCLC, 9.06 µM; in the test on MDA-MB-435, more than 100 µM; in the test with SF-268 CNS it was more than 100 µM.

For the molecule `CCCCCc1nc2c(c3c1CCCC3)CCCC2`, the GI50 was 11.9 µM in the test with U251 CNS; 11.9 µM in the test with A549 NSCLC; 13.4 µM in the test on 786-0 renal; 13.1 µM with HOP-62 NSCLC; 9.57 µM in the test with NCI-H226 lung; 17.4 µM with SF-539 CNS. Moreover, the GI50 in the test with OVCAR-4 ovarian is 5.61 µM; in the test on HOP-92 NSCLC, 1.95 µM; with MDA-MB-435, 14.4 µM; in the test on SF-268 CNS, 14.8 µM. In addition, the TGI in the test on U251 CNS is 29.1 µM; in the test with A549 NSCLC, 64 µM; with 786-0 renal it was 27.8 µM; with HOP-62 NSCLC, 29.1 µM; in the test with NCI-H226 lung, 25.6 µM; with SF-539 CNS, 36.2 µM. Besides, the TGI was 95.3 µM in the test on OVCAR-4 ovarian, 8.36 µM with HOP-92 NSCLC, 38.7 µM in the test on MDA-MB-435 and 44.4 µM in the test on SF-268 CNS.
